What all share (format): cell-based
Test [1] has as its system HCT-116 human colon carcinoma cells. The test is described as follows: Cytotoxicity (sulphorodamine B) on HCT-116 tumour cells. The note with it: HCT-116 cells, 24 h treatment then 48 h recovery, read-out: HCT-116 IC50 ± SD. Here is the method:
(§1) To test the effects of the compounds on cell growth, NB4 human promyelocytic leukaemia, NCI-H460 non-small cell carcinoma cells and HCT-116 human colon carcinoma cells were used. NB4 and NCI-H460 tumour cells were grown RPMI 1640 containing 10% fetal bovine serum (GIBCO), whereas HCT-116 tumour cells were grown in McCoy's 5A containing 10% fetal bovine serum (GIBCO).
(§2) Tumour cells were seeded in 96-well tissue culture plates (Corning) at approximately 10% confluence and were allowed to attach and recover for at least 24 h. Varying concentrations of the drugs were then added to each well to calculate their IC50 value (the concentration which inhibits the 50% of cell survival). The plates were incubated for 24 h at 37° C. At the end of the treatment, for NB4 tumour cells in suspension, the procedure was performed as follows: medium culture was removed by centrifugation of the plates at 1600×g for 10 min and the surnatant was removed. 250 μl PBS were added, then the plates were centrifuged at 1600×g for 10 min, the surnatant was removed. 200 μl/well of medium culture RPMI 1640 containing 10% FCS were added and the plates were incubated at 37° C. for other 48 h. The plates were centrifuged again at 1600×g for 10 min, the medium culture was removed and 200 μl PBS and 50 μl of cold 80% TCA were added. The plates were incubated on ice for at least 1 h. TCA was removed, the plates were washed 3 times for immersion in distilled-water and dried on paper and at 40° C. for 5 min. Then 200 μl of 0.4% sulphorodamine B in 1% acetic acid were added. The plates were incubated at room temperature for other 30 min. Sulphorodamine B was removed, the plates were washed for immersion in 1% acetic acid for 3 times, then they were dried on paper and at 40° C. for 5 min. Then 200 μl Tris 10 mM were added, the plates were kept under stirring for 20 min. The survival cell was determined as optical density by a Multiskan spectrofluorimeter at 540 nm. For the tumour cells in adhesion (NCI-H460 and HCT-116), the procedure was as above mentioned, except that at the end of the treatment, the plates were washed by remotion of the surnatant and addition of PBS 3 times without centrifugation. Also the last day of the assay, the surnatant was removed without centrifugation.
(§3) The amount of cells killed was calculated as the percentage decrease in sulphorodamine B binding compared with control cultures. The IC50 values (the concentration which inhibits the 50% of cell survival) were calculated with the “ALLFIT” program.

The test system of test [2] is NCI-H460 non-small cell carcinoma cells. As to the kind of experiment: Cytotoxicity (sulphorodamine B) on NCI-H460 tumour cells. As to conditions: Homo sapiens. Here is the method:
as §1, §2, §3

Test [3] deals with NB4 human promyelocytic leukaemia cells. As to the kind of experiment: Cytotoxicity (sulphorodamine B) on NB4 tumour cells. The protocol: as §1, §2, §3
The mark [4] stands for this setting: NCI-H460 cells, 24 h treatment then 48 h recovery, sulphorodamine B, read-out: NCI-H460 IC50 ± SD.
[5] abbreviates: range stated jointly for NCI-H460 non-small cell lung cancer and HCT-116 colon cancer, read-out: IC50 values on NCI-H460 and HCT-116 (range given).
Setting [6] is: Homo sapiens, NB-4, NB4 cells, 24 h treatment then 48 h recovery, sulphorodamine B, read-out: NB4 IC50 ± SD.
The mark [7] stands for this setting: NB4 cells, 24 h treatment then 48 h recovery, sulphorodamine B, read-out: NB4 IC50 ± SD.
Setting [8] is: Homo sapiens, range stated jointly for NB4, NCI-H460 and HCT-116, minor cytotoxicity, read-out: IC50 values on NB4 or NCI-H460 and HCT-116 (range given).

What is called IC50 is the concentration at which inhibition is half-maximal.

Where two headings read alike, the source gives them in different places.

As for `O=C(C=Cc1ccc(C(c2c[nH]c3ccccc23)c2c[nH]c3ccccc23)cc1)NO` [ST2887, 3-{4-[Bis-(1H-indol-3-yl)-methyl]-phenyl}-N-hydroxy-acrylamide], the IC50 is 3900 ± 500 nM in test [1]; 2600 ± 300 nM in test [2] (setting [4]); 600 to 5800 nM in test [2] (setting [5]); 400 to 2300 nM in test [3] (setting [6]); 600 ± 10 nM in test [3] (setting [7]).
On to `O=C(CCCCCCC(c1c[nH]c2ccccc12)c1c[nH]c2ccccc12)NO` [ST2889, 8,8-Bis-(1H-indol-3-yl)-octanoic acid hydroxyamide], for which the IC50 in test [1] is 3500 ± 200 nM; in test [2] (setting [4]), 2700 ± 200 nM; in test [2] (setting [5]), 600 to 5800 nM.
`O=C(CCCCCC(c1cc2ccccc2[nH]1)c1c[nH]c2ccccc12)NO` (centres unmarked) [ST3292, 7-(1H-Indol-3-yl)-7-(1H-indol-2-yl)-heptanoic acid hydroxyamide]: the IC50 in test [2] (setting [4]) was 820 ± 70 nM; in test [2] (setting [5]) it was 600 to 5800 nM; in test [3] (setting [6]) it was 400 to 2300 nM; in test [3] (setting [7]), 670 ± 10 nM.
As to `COc1cccc2c(C(CCCCCC(=O)NO)c3c[nH]c4c(OC)cccc34)c[nH]c12` [ST3043, 7,7-Bis-(7-methoxy-1H-indol-3-yl)-heptanoic acid hydroxyamide], the IC50 in test [1] was 410 ± 30 nM; in test [2] (setting [4]), 550 ± 30 nM; in test [2] (setting [5]), 270 to 700 nM; in test [3] (setting [6]), 400 to 2300 nM; in test [3] (setting [7]), 800 ± 10 nM.
Turning to `O=C(CCCC(c1c[nH]c2ccccc12)c1c[nH]c2ccccc12)NO` [ST2743, 5,5-Bis-(1H-indol-3-yl)-pentanoic acid hydroxyamide], the IC50 in test [2] (setting [4]) was 88800 ± 2800 nM; in test [3] (setting [8]), 8800 to 88800 nM.
Take `O=C(CCCCCc1c[nH]c2ccccc12)NO` [ST2995, N-hydroxy-6-(1H-indol-3-yl)hexanamide]: the values for the IC50 in test [2] (setting [4]), in test [3] (setting [6]) and in test [3] (setting [8]) were 22000 ± 1700 nM, 8800 ± 500 nM and 8800 to 88800 nM, respectively.
Turning to `O=C(O)CCCCCC(c1c[nH]c2ccccc12)c1c[nH]c2ccccc12` [ST3127, 7,7-Bis-(1H-indol-3-yl)-heptanoic acid], the IC50 was more than 20000 nM in test [1], more than 20000 nM in test [2] (setting [4]), more than 20000 nM in test [3] (setting [6]) and 8800 to 88800 nM in test [3] (setting [8]).
On to `Cc1ccc2[nH]cc(C(CCCCCC(=O)NO)c3c[nH]c4ccc(C)cc34)c2c1` [ST3044, 7,7-Bis-(5-methyl-1H-indol-3-yl)-heptanoic acid hydroxyamide], for which the IC50 is 270 ± 10 nM in test [1], 510 ± 100 nM in test [2] (setting [4]), 270 to 700 nM in test [2] (setting [5]) and 150 nM in test [3] (setting [6]).
For the compound `O=C(CCCCCC(C1C=Nc2ccc(CN3CCOCC3)cc21)C1C=Nc2ccc(CN3CCOCC3)cc21)NO` (centres unmarked) [ST3307, 7,7-Bis-(5-morpholin-4-ylmethyl-3H-indol-3-yl)-heptanoic acid hydroxyamide], the IC50 in test [2] (setting [4]) is 1100 ± 100 nM; in test [2] (setting [5]), 600 to 5800 nM; in test [3] (setting [6]), 400 to 2300 nM; in test [3] (setting [7]) it was 420 ± 20 nM.
Turning to `O=C(CCCCCC(c1c[nH]c2cccc(F)c12)c1c[nH]c2cccc(F)c12)NO` [ST3052, 7,7-Bis-(4-fluoro-1H-indol-3-yl)-heptanoic acid hydroxyamide], the 50% inhibitory concentration (IC50) in test [1] was 400 ± 100 nM; in test [2] (setting [4]) it was 700 ± 90 nM; in test [2] (setting [5]), 270 to 700 nM; in test [3] (setting [6]) it was 400 to 2300 nM; in test [3] (setting [7]), 600 ± 90 nM.
Regarding `O=C(CCC(c1c[nH]c2ccccc12)c1c[nH]c2ccccc12)NO` [ST2408, N-Hydroxy-4,4-bis-(1H-indol-3-yl)-butyramide], the IC50 in test [2] (setting [4]) is 25900 ± 300 nM; in test [3] (setting [6]), 14600 ± 600 nM; in test [3] (setting [8]), 8800 to 88800 nM.
`O=C(CCCCC(c1c[nH]c2ccccc12)c1c[nH]c2ccccc12)NO` [ST2754, 6,6-Bis-(1H-indol-3-yl)-hexanoic acid hydroxyamide]: the concentration for half-maximal inhibition (IC50) in test [1] is 5800 ± 200 nM; in test [2] (setting [4]) it was 5200 ± 300 nM; in test [2] (setting [5]), 600 to 5800 nM.
As for `O=C(CCCCCC(c1c[nH]c2ccccc12)c1c[nH]c2ccccc12)NO` [ST2741, 7,7-Bis-(1H-indol-3-yl)-heptanoic acid hydroxyamide], the half-inhibitory concentration (IC50) in test [1] was 600 ± 20 nM; in test [2] (setting [4]), 1200 ± 100 nM; in test [2] (setting [5]), 600 to 5800 nM; in test [3] (setting [6]), 400 to 2300 nM; in test [3] (setting [7]), 600 ± 10 nM.
